Experimental data reported in paper PMC9654711, “Neuroprotective Action of Coumarin Derivatives through Activation of TRKB-CREB-BDNF Pathway and Reduction of Caspase Activity in Neuronal Cells Expressing Pro-Aggregated Tau Protein” (International Journal of Molecular Sciences, 2022).

Key:
[1] = test system: ΔK280 tauRD-DsRed SH-SY5Y folding reporter cells; test: High-content analysis of ΔK280 tauRD-DsRed fluorescence and cell number (folding reporter); type: cell-based, human; settings: BDNF at 100 ng/mL, LMDS-1/2 at 10 μM; untreated = 100%; Figure 6A
Protocol: (§1) On day 1, ∆K280 tauRD-DsRed SH-SY5Y cells were seeded in a 96-well plate (3 × 10^4/well), with retinoic acid (10 µM; Sigma-Aldrich) added to induce neuronal differentiation. […] […] For ROS measurement, dichloro-dihydro-fluorescein diacetate (DCFH-DA, 10 µM; Invitrogen, Carlsbad, CA, USA) was added to the cells on day 8 and incubated at 37 °C for 30 min.

p-TRKB (Y516 and Y817) = test: Immunoblot of p-TRKB (Y516 and Y817); type: cell-based, human; settings: BDNF 100 ng/mL, LMDS-1/2 10 μM; induced untreated 77–83%; Figure 6B
Protocol: (§2) ∆K280 tauRD-DsRed SH-SY5Y cells in 6-well plates (5 × 10^5/well) were treated with retinoic acid (10 µM) on day 1, followed by LMDS-1 or -2 (10 µM) and doxycycline (2 µg/mL) addition on day 2 as described. ERK inhibitor U0126 or PI3K inhibitor wortmannin (10 μM) (LC Laboratories, Woburn, MA, USA) was added on day 6. On day 8, the cells were collected for BDNF, BCL2, BAX and total/phosphorylated TRKB, ERK, AKT, CREB protein analyses as described.
(§3) ∆K280 tauRD-DsRed SH-SY5Y cells were lysed in buffer containing 50 mM Tris-HCl (pH 8.0), 150 mM NaCl, 1 mM EDTA (pH 8.0), 1 mM EGTA (pH 8.0), 0.1% SDS, 0.5% sodium deoxycholate, 1% Triton X-100 and protease (Sigma-Aldrich)/phosphatase (Roche, Basel, Switzerland) inhibitor cocktails. After two sonications with an interval of 30 min on ice, cell lysates were collected by centrifugation at 14,000× g for 30 min at 4 °C. Protein concentrations were determined using a Bradford assay (Bio-Rad, Hercules, CA, USA). Protein samples (25 µg) were separated by 10–12% SDS-PAGE and transferred to polyvinylidene difluoride (PVDF) membranes (Sigma-Aldrich). After blocking for 2 h with 10% skimmed milk or 5% BSA in 0.1% Tween 20 in Tris-buffered saline (TBST), the membrane was incubated with primary antibody against BDNF (1:500; Santa Cruz, Santa Cruz, CA, USA), BCL2 (1:500; BioVision), BAX (1:500; BioVision), TRKB (1:1000; Cell Signaling, Danvers, MA, USA), p-TRKB (Y516) (1:1000; Cell Signaling), p-TRKB (Y817) (1:1000; Millipore, Billerica, MA, USA), ERK (1:1000; Cell Signaling), p-ERK (T202/Y204) (1:500; Cell Signaling), AKT (1:1000; Cell Signaling), p-AKT (S473) (1:1000; Cell Signaling), CREB (1:1000; Santa Cruz), p-CREB (S133) (1:1000; Millipore), JNK (1:1000; Cell Signaling), p-JNK (T183/Y185) (1:1000; Cell Signaling) or loading control glyceraldehyde-3-phosphate dehydrogenase (GAPDH) (1:1000; MDBio, Taipei, Taiwan). After three washes with TBST, the immune complexes were detected using horseradish peroxidase-conjugated goat anti-mouse or goat anti-rabbit secondary IgG antibody (1:5000, GeneTex, Irvine, CA, USA) and enhanced chemiluminescence substrates luminol and peroxide (Millipore). The primary and secondary antibodies used were diluted with TBST. The chemiluminescent detection was performed on ImageQuant™ LAS 4000mini (GE Healthcare).

p-CREB (S133) = test: Immunoblot of p-CREB (S133); type: cell-based, human; settings: BDNF 100 ng/mL, LMDS-1/2 10 μM; induced untreated 72%; Figure 6B
Protocol: as §2, §3

[2] = High-content analysis of ΔK280 tauRD-DsRed fluorescence and cell number (folding reporter); type: cell-based, human; settings: human; induced ΔK280 tauRD-DsRed SH-SY5Y; compounds 2.5–10 µM; read-out: IC50 cytotoxicity based on the cell number analyzed
Protocol: as §1

[3] = test system: ΔK280 tauRD-DsRed SH-SY5Y cells; test: High-content analysis of neurite outgrowth; type: cell-based, human; settings: 10 µM
Protocol: As described, ∆K280 tauRD-DsRed SH-SY5Y cells were seeded in a 24-well plate (5 × 10^4/well) with retinoic acid addition on day 1, treated with tested compounds (10 µM) and ∆K280 tauRD-DsRed expression was induced with doxycycline (2 μg/mL) on day 2. On day 8, after being fixed in 4% paraformaldehyde for 15 min, permeabilized in 0.1% Triton X-100 for 10 min and blocked in 3% bovine serum albumin (BSA) for 20 min, the cells were stained with TUBB3 (neuronal class III β-tubulin) primary antibody (1:1000; BioLegend, San Diego, CA, USA) at 4 °C overnight, followed by goat anti-rabbit Alexa Fluor® 555 secondary antibody (1:1000; Molecular probes) at room temperature for 2 h, with 4′-6-diamidino-2-phenylindole (DAPI, 0.1 µg/mL; Sigma-Aldrich) included for nuclei staining. Neuronal images were captured using the high-content analysis system as described. Neurite total length (μm), processes (primary neurite extensions projecting directly from the cell body) and branching (points at which primary neurites bifurcated) were analyzed using Neurite Outgrowth Application Module (MetaXpress; Molecular Devices). Around 5000 cells were analyzed in each of three independent experiments for each sample.

[4] = target: T1, TRKB-ECD-His (extracellular domain of TRKB) (Homo sapiens, UniProt Q16620); test: Tryptophan fluorescence quenching assay; settings: TRKB-ECD-His 50 nM in PBS; excitation 295 nm, emission 330 nm; compounds 0–1000 nM; read-out: TRKB-ECD binding affinity (KD)
T1 construct: extracellular domain of TRKB (TRKB-ECD) (residues 32–429, XP_016870240); Saccharomyces cerevisiae α-factor secretion signal (N, cleaved yes); made in house; host or cells: Pichia pastoris
T1 sequence (Q16620 32-429): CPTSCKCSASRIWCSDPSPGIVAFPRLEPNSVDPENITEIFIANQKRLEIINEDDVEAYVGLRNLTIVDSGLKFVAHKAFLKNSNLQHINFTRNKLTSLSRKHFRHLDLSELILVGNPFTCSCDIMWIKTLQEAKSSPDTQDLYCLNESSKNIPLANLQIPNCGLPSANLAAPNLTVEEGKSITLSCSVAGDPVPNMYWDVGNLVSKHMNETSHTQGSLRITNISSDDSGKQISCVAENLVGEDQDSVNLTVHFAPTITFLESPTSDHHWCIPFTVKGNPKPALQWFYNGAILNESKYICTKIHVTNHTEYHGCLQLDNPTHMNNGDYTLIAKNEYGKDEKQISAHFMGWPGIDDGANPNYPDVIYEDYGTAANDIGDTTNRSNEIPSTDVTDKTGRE
From the text: The cDNA fragment containing the full-length extracellular domain of TRKB (TRKB-ECD) (residues 32–429, XP_016870240) was amplified from pDONR223-NTRK2 plasmid (Addgene, Watertown, MA, USA) using forward primer 5′-ctcgagaaaagagaggctgaagctTGTCCCACGTCCTGAAATG (XhoI site and Kex2 cleavage of the signal sequence in lowercase letters) and reverse primer 5′-gtcgac[…] (SalI site in lowercase letters). After cloning and sequencing, the TRKB-ECD fragment was excised with XhoI and SalI and subcloned into Pichia expression vector pGAPZα A (Invitrogen). The AvrII-linearized plasmid was then transformed into Pichia pastoris, and stable transformants selected and cultured at 30 °C for 4 days for constitutive expression of recombinant His-tagged TRKB-ECD. The secreted TRKB-ECD-His in cultured medium was purified using Ni-NTA His•Bind resins (Novagen, Madison, WI 53719, USA) according to the supplier’s instructions. Protein purity was examined by Coomassie blue staining of SDS-polyacrylamide gel as well as immunoblotting using anti-His (1:2000; Acris, Herford, Germany) and anti-TRKB (1:1000; Cell Signaling) antibodies.
The interaction between TRKB-ECD-His and LM-031, LMDS-1 or LMDS-2 was determined by tryptophan fluorescence titration. 7,8-DHF (Sigma-Aldrich) was included as a positive control. Tryptophan fluorescence spectra of TRKB-ECD-His (50 nM in PBS) were obtained before and after titration with different concentrations of test compounds (0–1000 nM). The fluorescent quenching was conducted in a cuvette with a 1 cm path length cell by an F-7000 fluorescence spectrophotometer (Hitachi, Tokyo, Japan) at room temperature. The intrinsic fluorescence spectra of TRKB were recorded with excitation wavelength set at 295 nm and emission wavelength in the range 300–400 nm. The dissociation constant (KD) of 7,8-DHF, LM-031, LMDS-1 and LMDS-2 to TRKB was determined by fitting the normalized fluorescence intensity at 330 nm under different concentrations of test compounds using the equation derived from Liu et al.:KD = [P]T (f − 1) + [D]T (1/f − 1), where f is the fractional change, and [P]Tand [D]Tare the total concentration of TRKB-ECD-His protein and test compound, respectively.

[5] = target: T2, E. coli-expressed ΔK280 tauRD protein (Homo sapiens, UniProt P10636, DEL597-597); test: Anti-ΔK280 tauRD aggregation assay (thioflavin T); type: biochemical; settings: compounds tested 1–10 μM, 20 μM protein, 48 h, linear interpolation, read-out: EC50 for ΔK280 tauRD aggregation inhibition
T2 construct: assessed by using E. coli-expressed ΔK280 tauRD protein; made in house; host or cells: E. coli
T2 sequence (P10636 with tags, fused parts or gaps DEL597-597): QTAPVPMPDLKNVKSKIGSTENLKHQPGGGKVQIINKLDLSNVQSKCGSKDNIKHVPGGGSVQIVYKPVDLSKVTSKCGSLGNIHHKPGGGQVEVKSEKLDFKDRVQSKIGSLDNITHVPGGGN
Protocol: Thioflavin T is widely used to visualize and quantify the presence of misfolded amyloid protein aggregates in vitro [74]. The tau aggregation inhibiting potential of Congo red, LM-031 and LMDS-1 to -4 was assessed by using E. coli-expressed ΔK280 tauRD protein [28]. Briefly, purified ΔK280 tauRD protein (20 μM) was incubated with Congo red or coumarin compounds (1–10 μM) in 150 mM NaCl and 20 mM Tris-HCl pH8.0, at 37 °C with shaking for 48 h to form aggregates. Then, thioflavin T (final 5 μM; Acros Organics, Geel, Belgium) was added and incubated for 25 min at room temperature. Fluorescence intensity of samples was recorded at excitation/emission wavelengths of 420/485 nm using an FLx800 microplate reader (BioTek, Winooski, VT, USA). The half maximal effective concentration (EC50) values were calculated by using a linear interpolation method.

[6] = DPPH free radical-scavenging assay; settings: compounds tested 10–80 μM; DPPH 100 µM; linear interpolation
Protocol: The potential free radical-scavenging activity of test compounds was assayed using stable free radical 1,1-diphenyl-2-picrylhydrazyl (DPPH) (Sigma-Aldrich). Briefly, kaempferol, LM-031 or LMDS-1 to -4 (10–80 µM) was added to DPPH (100 µM in 99% ethanol). The solution was vortexed for 15 s, left for 30 min at room temperature, the mixture was transferred to a 96-well UV-transparent microplate and the absorbance at 517 nm was measured using a Multiskan^TM GO microplate spectrophotometer (Thermo Fisher Scientific, Waltham, MA, USA). Radical-scavenging activity was calculated using the equation: 1 − (absorbance of sample/absorbance of control) × 100%, and EC50 estimated using the linear interpolation method.

[7] = Oxygen radical antioxidant capacity (ORAC) assay; settings: compound at 100 μM
Protocol: In addition, an oxygen radical antioxidant capacity (ORAC) assay was performed using an OxiSelect™ kit according to the manufacturer’s instruction (Cell Biolabs, San Diego, CA, USA). Briefly, Trolox standards (2.5–50 μM) and samples (4–100 μM) were diluted with 50% acetone. Blank (50% acetone), standards and samples were mixed with fluorescein and incubated at 37 °C for 30 min. Following the free radical initiator 2,2′-azobis(2-methylpropionamidine) dihydrochloride (AAPH), the produced peroxyl radicals (ROO•) quench the fluorescent probe over time. Antioxidants present in the assay block the peroxyl radical oxidation of the fluorescent probe. The course of the reaction was recorded for 60 min, with one measurement every five minutes using a BioTek FLx800 microplate reader. The excitation and emission wavelengths were set at 480 nm and 520 nm, respectively. To quantify the oxygen radical antioxidant activity in a sample, the area under the curve (AUC) for blank, standard and samples was calculated. After subtraction of the blank, the equivalent Trolox concentrations of samples were expressed based on the Trolox standard curve.

Row | Compound | EC50 [5] | EC50 [6] | IC50 at 6 days [2] | Oxygen radical absorbance capacity, activity equivalent to Trolox [7] | further results
1 | BDNF: Brain-derived neurotrophic factor | – | – | – | – | DsRed fluorescence intensity [1]: 111–112%; p-TRKB (Y516/Y817) level (p-TRKB (Y516 and Y817)): 96–104%; p-CREB level (p-CREB (S133)): 90–95%
2 | Nc1c(/N=N/c2ccc(-c3ccc(/N=N/c4cc(S(=O)(=O)O)c5ccccc5c4N)cc3)cc2)cc(S(=O)(=O)O)c2ccccc12 [Congo red, reference compound] | – | – | 45 µM | – | Neurite branching ([3]; induced untreated 0.87, uninduced 0.99): 1.00–1.06; Neurite length ([3]; induced untreated 27.2 μm, uninduced 30.9 μm): 30.3–31.5 μm
3 | O=c1cc(-c2ccccc2)oc2c(O)c(O)ccc12 [7,8-DHF, 7,8-dihydroxyflavone, reference compound] | – | – | – | – | Kd [4]: 0.016 ± 0.0034 µM
4 | O=c1c(O)c(-c2ccc(O)cc2)oc2cc(O)cc(O)c12 [Kaempferol, kaempferol, reference compound] | – | 28 µM | – | – | –

Second part, led by results:

Row | EC50 [5] | EC50 [6] | Compound | IC50 at 6 days [2] | Oxygen radical absorbance capacity, activity equivalent to Trolox [7] | further results
5 | 14 µM | 126 µM | CC(=O)Oc1ccc2cc(C(=O)c3ccccc3)c(=O)oc2c1 [LMDS-4] | 25 µM | 16 μM Trolox | –
6 | 21 µM | 132 µM | COc1ccc2cc(C(=O)c3ccccc3)c(=O)oc2c1 [LMDS-3] | 29 µM | 12 μM Trolox | –
